Reference: US20150216168A1, “USE OF SUBSTITUTED 2-AMIDOBENZIMIDAZOLES, 2-AMIDOBENZOXAZOLES AND 2-AMIDOBENZOTHIAZOLES OR SALTS THEREOF AS ACTIVE SUBSTANCES AGAINST ABIOTIC PLANT STRESS” (BAYER CROPSCIENCE AG, priority 2012, published 2015)

Assays:
[1] = tested on: Zea mays; test: Drought stress test on greenhouse crop plants, spray application, corn; assay type: in vivo; settings: 250 g/ha
Description: (§1) Seeds of monocotyledonous and dicotyledonous crop plants were laid out in sandy loam in wood-fiber pots, covered with soil or sand and cultivated in a greenhouse under good growth conditions. The test plants were treated at the early leaf stage (BBCH10-BBCH13). To assure uniform water supply before commencement of stress, the potted plants were supplied with water by dam irrigation prior to substance application. The compounds according to the invention, formulated in the form of wettable powders (WP), were sprayed onto the green parts of the plants as an aqueous suspension at an equivalent water application rate of 600 I/ha with addition of 0.2% wetting agent (e.g. agrotin). Substance application was followed immediately by stress treatment of the plants. For this purpose, the pots were transferred into plastic inserts in order to prevent them from subsequently drying out too quickly. Drought stress was induced by gradual drying out under the following conditions:
(§2) “Day”: 14 hours with illumination at 26° C. […]
(§3) After the recovery phase had ended, the intensities of damage were analyzed in visual comparison to untreated, unstressed controls for the same age. The intensity of damage was first recorded as a percentage (100%=plants have died, 0%=like control plants). […]
(§4) In each trial, 3 pots per crop and dosage were treated and evaluated; the resulting efficacies are thus averages. […]

[2] = tested on: Hordeum vulgare; test: Drought stress test on greenhouse crop plants, spray application, barley; assay type: in vivo; settings: 500 g/ha
Description: as §1, §2, §3, §4

For `NC(=O)c1cccc2oc(-c3ccc(Cl)cc3Cl)nc12` [B1-18, 2-(2,4-Dichlorophenyl)-1,3-benzoxazole-4-carboxamide], the “EF (ZEAMX): efficacy, percentage reduction in the intensity of damage” value [1] was greater than 5% and the “EF (HORVS): efficacy, percentage reduction in the intensity of damage” value [2] was greater than 5%.
